Experimental data from ChEMBL document CHEMBL5214933, “Discovery of Selenium-Containing STING Agonists as Orally Available Antitumor Agents” (J Med Chem, 2022).
In brackets after ≈: the same amount, converted by molar mass. Activity calls are given as the source filed them. The rule behind the calls is not given here.

How the values were obtained:
hERG = hERG (Homo sapiens, UniProt Q12809); assay: Inhibition of hERG expressed in HEK293 cells at 10 uM incubated for 5 mins by QPatch automated patch-clamp technique relative to control; assay type: toxicity, cell-based; details: HEK293 cells that express hERG
Sequence of hERG (Q12809 whole entry): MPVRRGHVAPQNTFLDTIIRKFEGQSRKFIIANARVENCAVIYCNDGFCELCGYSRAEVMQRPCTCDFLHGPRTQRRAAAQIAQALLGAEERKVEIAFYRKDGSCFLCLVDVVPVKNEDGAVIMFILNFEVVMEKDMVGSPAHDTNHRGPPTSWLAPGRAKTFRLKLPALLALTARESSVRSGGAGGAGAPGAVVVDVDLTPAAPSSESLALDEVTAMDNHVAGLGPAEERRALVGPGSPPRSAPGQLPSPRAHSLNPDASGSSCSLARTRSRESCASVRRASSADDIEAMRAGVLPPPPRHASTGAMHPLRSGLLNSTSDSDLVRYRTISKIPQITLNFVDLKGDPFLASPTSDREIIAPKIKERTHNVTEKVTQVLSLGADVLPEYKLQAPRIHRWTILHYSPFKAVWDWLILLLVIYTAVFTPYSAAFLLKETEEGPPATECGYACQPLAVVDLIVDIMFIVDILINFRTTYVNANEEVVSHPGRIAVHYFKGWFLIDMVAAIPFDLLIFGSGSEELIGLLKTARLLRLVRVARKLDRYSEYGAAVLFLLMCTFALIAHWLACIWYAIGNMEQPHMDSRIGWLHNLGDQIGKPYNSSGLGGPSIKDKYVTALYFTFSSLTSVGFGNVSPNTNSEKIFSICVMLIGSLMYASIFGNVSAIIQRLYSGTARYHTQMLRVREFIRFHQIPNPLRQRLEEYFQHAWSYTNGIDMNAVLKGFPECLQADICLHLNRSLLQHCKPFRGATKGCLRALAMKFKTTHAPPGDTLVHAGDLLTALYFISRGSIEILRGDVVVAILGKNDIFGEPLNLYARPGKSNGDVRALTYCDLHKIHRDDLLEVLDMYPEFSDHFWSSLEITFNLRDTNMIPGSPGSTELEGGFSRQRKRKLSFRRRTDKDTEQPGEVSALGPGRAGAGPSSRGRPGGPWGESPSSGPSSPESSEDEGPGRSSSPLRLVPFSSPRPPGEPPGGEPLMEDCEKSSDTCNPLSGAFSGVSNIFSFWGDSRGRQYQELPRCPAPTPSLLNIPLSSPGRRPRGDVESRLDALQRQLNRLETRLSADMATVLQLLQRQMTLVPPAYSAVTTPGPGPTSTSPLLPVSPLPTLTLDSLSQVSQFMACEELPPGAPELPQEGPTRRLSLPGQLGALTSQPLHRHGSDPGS

MC-38 [1] = assay: In vivo activation of STING in naive […] mouse implanted with mouse MC38 cells assessed as increase in IL-6 level in plasma at 30 mg/kg, po administered as single dose and measured after 4 hrs by ELISA; assay type: functional, organism-based
[2] = Stability in dog plasma assessed as interconversion into (S)-4-(5,6-Dimethoxybenzo[b]selenophen-2-yl)-2-ethyl-4-oxobutanoic acid incubated for 24 hrs by normal-phase HPLC analysis; assay type: ADME, cell-free, Canis lupus familiaris
Mus musculus = assay: Immunostimulatory activity in naive […] mouse implanted with mouse MC38 cells assessed as increase in NK cells in spleen at 30 mg/kg, po by FACS analysis; assay type: functional, organism-based; details: MC-38
[3] = Oral bioavailability in Sprague-Dawley rat at 50 mg/kg measured for 1440 mins by LC-MS/MS analysis; assay type: ADME, organism-based; details: in vivo
[4] = biological target: T1, Stimulator of interferon genes protein (Homo sapiens, UniProt Q86WV6); assay: Agonist activity at STING in human THP-1 cells harboring IRF-inducible luciferase reporter construct assessed as increase in relative fluorescence unit incubated for 12 hrs by Quanti-luc reagent based assay; assay type: cell-based
Target sequence in this assay (Q86WV6 whole entry): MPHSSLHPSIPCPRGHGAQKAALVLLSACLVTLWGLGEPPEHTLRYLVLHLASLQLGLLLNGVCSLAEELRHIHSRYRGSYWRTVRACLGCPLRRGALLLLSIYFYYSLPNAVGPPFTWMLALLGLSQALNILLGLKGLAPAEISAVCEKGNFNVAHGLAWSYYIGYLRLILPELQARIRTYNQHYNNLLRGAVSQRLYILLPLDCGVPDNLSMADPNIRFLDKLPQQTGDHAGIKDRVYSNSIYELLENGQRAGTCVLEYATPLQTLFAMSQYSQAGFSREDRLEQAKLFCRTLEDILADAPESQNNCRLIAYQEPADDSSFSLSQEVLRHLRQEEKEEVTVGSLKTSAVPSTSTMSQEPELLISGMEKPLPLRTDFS

[5] = biological target: T2, Stimulator of interferon genes protein (Mus musculus) (UniProt Q3TBT3); assay: Agonist activity at STING in mouse MEF cells assessed as increase in IFNbeta mRNA expression at 10 uM measured after 3 hrs by qRT-PCR analysis; assay type: cell-based; details: filed as agonist
T2 sequence (whole entry): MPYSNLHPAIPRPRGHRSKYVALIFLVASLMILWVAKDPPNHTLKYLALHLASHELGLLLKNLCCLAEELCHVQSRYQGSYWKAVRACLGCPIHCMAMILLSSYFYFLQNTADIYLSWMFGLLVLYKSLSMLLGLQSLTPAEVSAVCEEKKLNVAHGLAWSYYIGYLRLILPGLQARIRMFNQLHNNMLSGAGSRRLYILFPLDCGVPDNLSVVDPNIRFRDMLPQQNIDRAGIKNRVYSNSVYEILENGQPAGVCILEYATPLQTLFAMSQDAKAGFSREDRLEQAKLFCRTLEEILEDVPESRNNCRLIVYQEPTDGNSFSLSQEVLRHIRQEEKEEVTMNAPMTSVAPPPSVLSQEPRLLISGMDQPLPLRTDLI

[6] = Aqueous solubility of compound at 3 mg incubated for 24 hrs under shaking condition by RP-HPLC analysis; assay type: physicochemical; details: water
[7] = tested on: Stimulator of interferon genes protein (Homo sapiens), Q86WV6 [UNDEFINED MUTATION]; assay: Binding affinity to recombinant human STING H232 variant expressed in Escherichia coli BL21 (DE3) assessed as thermal stabilization by measuring change in melting temperature at 2 mM incubated for 30 mins by SYPRO orange dye based differential scanning fluorimetry assay
Sequence of Stimulator of interferon genes protein (Homo sapiens), Q86WV6 [UNDEFINED MUTATION] (Q86WV6 whole entry, looked up, stated change not applied): as the sequence (Q86WV6 whole entry) above

[8] = biological target: T2, Stimulator of interferon genes protein (Mus musculus); assay: Agonist activity at STING in mouse RAW264.7 cells harboring IRF-inducible luciferase reporter construct assessed as increase in […] mRNA expression at 10 to 50 uM measured after 1 hr by qRT-PCR analysis; assay type: cell-based; details: filed as agonist, dose 10-50 µM
[9] = Clearance in Sprague-Dawley rat at 5 mg/kg, iv measured for 1440 mins by LC-MS/MS analysis; assay type: ADME, organism-based; details: in vivo
[10] = tested on: Stimulator of interferon genes protein (Homo sapiens), Q86WV6 [UNDEFINED MUTATION]; assay: Binding affinity to recombinant human STING AQ variant expressed in Escherichia coli BL21 (DE3) assessed as thermal stabilization by measuring change in melting temperature at 0.1 mM incubated for 30 mins by SYPRO orange dye based differential scanning fluorimetry assay
[11] = biological target: T1, Stimulator of interferon genes protein; assay: Agonist activity at STING in human THP-1 cells harboring IRF-inducible luciferase reporter construct assessed as increase in TBK1 phosphorylation at 50 uM measured after 1 hrs by Western blot analysis; assay type: cell-based; details: filed as agonist
Target sequence in this assay (Q86WV6 whole entry): as the sequence (Q86WV6 whole entry) above

CT26 = assay: Antitumor activity against mouse CT26 cells implanted in naive BALB/c mouse assessed as tumor growth regression at 20 mg/kg, po administered once every 5 days and measured after 30 days by digital caliper analysis relative to control; assay type: functional; details: time 30 day
[12] = biological target: T1, Stimulator of interferon genes protein; assay: Agonist activity at STING in human THP-1 cells assessed as increase in CXCL10 mRNA expression at 10 uM measured after 3 hrs by qRT-PCR analysis; assay type: cell-based; details: filed as agonist
Target sequence in this assay (Q86WV6 whole entry): as the sequence (Q86WV6 whole entry) above

[13] = Stability in rat plasma assessed as interconversion into (S)-4-(5,6-Dimethoxybenzo[b]selenophen-2-yl)-2-ethyl-4-oxobutanoic acid incubated for 24 hrs by normal-phase HPLC analysis; assay type: ADME, cell-free
[14] = Volume of distribution at steady state in Sprague-Dawley rat at 50 mg/kg, po measured for 1440 mins by LC-MS/MS analysis; assay type: ADME, organism-based; details: in vivo, 24 h
[15] = biological target: T1, Stimulator of interferon genes protein; assay: Agonist activity at STING in human THP-1 cells assessed as increase in IFNbeta mRNA expression at 10 uM measured after 3 hrs by qRT-PCR analysis; assay type: cell-based; details: filed as agonist
Target sequence in this assay (Q86WV6 whole entry): as the sequence (Q86WV6 whole entry) above

[16] = biological target: T1, Stimulator of interferon genes protein; assay: Agonist activity at STING in cGAS knockout human THP-1 cells harboring IRF-inducible luciferase reporter construct assessed as increase in relative fluorescence unit incubated for 12 hrs by Quanti-luc reagent based assay; assay type: cell-based
Target sequence in this assay (Q86WV6 whole entry): as the sequence (Q86WV6 whole entry) above

[17] = Stability in rat liver microsomes assessed as parent compound remaining at 1 uM incubated for 2 hrs in presence of NADPH by LC-MS/MS analysis; assay type: ADME, Microsome; details: read-out: Stability
[18] = AUC (0 to infinity) in Sprague-Dawley rat at 50 mg/kg, po measured for 1440 mins by LC-MS/MS analysis; assay type: ADME, organism-based; parameters: time 1440 min, dose 50 mg/kg, route po; details: in vivo
[19] = Stability in human plasma assessed as interconversion into (S)-4-(5,6-Dimethoxybenzo[b]selenophen-2-yl)-2-ethyl-4-oxobutanoic acid incubated for 24 hrs by normal-phase HPLC analysis; assay type: ADME, cell-free
[20] = Protein binding in plasma (unknown origin) assessed as unbound fraction at 2 uM incubated for 4 hrs under shaking condition by rapid equilibrium dialysis method; assay type: ADME, cell-free
[21] = Toxicity in naive BALB/c mouse implanted with mouse 4T1-Luc cells assessed as reduction in body weight at 20 mg/kg, po measured after 15 days; assay type: organism-based; details: in vivo, 360 h, time 15 day
MC-38 [22] = assay: In vivo activation of STING in naive […] mouse implanted with mouse MC38 cells assessed as increase in IFN-gamma level in plasma at 30 mg/kg, po administered as single dose and measured after 4 hrs by ELISA; assay type: functional, organism-based
[23] = biological target: T1, Stimulator of interferon genes protein; assay: Binding affinity to recombinant human STING H232 variant expressed in Escherichia coli BL21 (DE3) assessed as dissociation constant by single cycle SPR analysis
Target sequence in this assay (Q86WV6 whole entry, looked up, change not shown): as the sequence (Q86WV6 whole entry) above

[24] = biological target: T1, Stimulator of interferon genes protein; assay: Agonist activity at STING in human THP-1 cells harboring IRF-inducible luciferase reporter construct assessed as increase in IRF3 phosphorylation measured after 3 hrs by Western blot analysis; assay type: cell-based; details: filed as agonist, dose 10-50 µM, DDE = dose-dependent effect
Target sequence in this assay (Q86WV6 whole entry): as the sequence (Q86WV6 whole entry) above

4T1 = assay: Antitumor activity against mouse 4T1 cells implanted in naive BALB/c mouse assessed as tumor growth inhibition at 20 mg/kg, po administered once every 5 days and measured every 3 days by digital caliper analysis; assay type: functional, organism-based; details: time 5.0 day

SMILES: CC[C@H](CC(=O)c1cc2cc(OC)c(OC)cc2[se]1)C(=O)O
- inhibition at 5 min, 10 µM (hERG): -0.7%
- Activity (MC-38 [1]): Active
- Stability [2]: Stable
- Activity (Mus musculus): Active
- bioavailability [3]: 107%
- EC50 [4]: 9.24 µM
- Activity [5]: Active
- solubility thermodynamic at 24 h [6]: 30 µg/mL (≈ 81.2 µM)
- ΔTm [7]: 7.4 °C
- Activity [8]: Active
- clearance [9]: 2.83 mL/min/kg
- ΔTm [10]: 30.3 °C
- Activity [11]: Active
- Activity (CT26): 100%
- Activity [12]: Active
- Stability [13]: Stable
- Vdss [14]: 0.38 L/kg
- Activity [15]: Active
- EC50 [16]: 5.19 µM
- remaining at 2 h, 1 µM [17]: 100%
- AUC(0-inf) [18]: 316 µg·h/mL
- Stability [19]: Stable
- Fu [20]: 0.07%
- Activity [21]: Non-Toxic
- Activity (MC-38 [22]): Active
- Kd [23]: 23 µM
- Activity [24]: Dde
- Activity (4T1): Active
